# Tests used:
# [1] = tested on: VEGF-induced EBD extravasation; assay: VEGF-induced Dermal Extravasation in Guinea Pig (Miles Assay); type: in vivo; settings: for in-vivo activity (Miles Assay, Table 3): oral administration; for Miles Assay % inhibition: single oral dose 75 mg/kg, vehicle PEG400
# Protocol: VEGF-induced Dermal Extravasation in Guinea Pig (Miles Assay). Male Hartley guinea pigs (300-600 g) were anesthetized with isofluorane, sheared, and given a single oral dose of drug or the respective vehicle. Ten minutes prior to the end of drug treatment, guinea pigs were anesthetized with isofluorane, and 0.5% Evans blue dye (EBD) in PBS (13-15 mg/kg dose of EBD) was injected intravenously. After 5 minutes, triplicate intradermal injections of 100 ng rhVEGF165 in 100 μl PBS and of 100 μl PBS alone were administered on the flank. After 20 minutes, each animal was euthanized with Pentosol, and the skin containing the intradermal injection sites was removed for image analysis.
# Using an analog video camera coupled to a PC, an image of each trans-illuminated skin sample was captured, and the integrated optical density of each injection site was measured using ImagePro 4. For each skin sample, the difference between the mean optical density of the VEGF sites and mean optical density of the PBS sites is the measure of VEGF-induced EBD extravasation in that animal. These measured values were averaged per study group to determine the mean VEGF-induced EBD extravasation for each experimental condition, and the group means were then compared to assess inhibition of VEGF-induced EBD extravasation in the drug-treated groups relative to the vehicle-treated controls.
# [2] = tested on: VEGF induced increases in intracellular calcium levels in HUVEC (human umbilical vein endothelial cells); assay: VEGF Stimulated Ca++ signal assay (FLIPR); type: cell-based; settings: VEGF 5 ng/mL; for IC50: 0.01 to 10.0 μM; for inhibition at 10 µM: 30 min pre-incubation
# Protocol: VEGF Stimulated Ca^++ Signal in vitro
# Automated FLIPR (Fluorometric Imaging Plate Reader) technology was used to screen for inhibitors of VEGF induced increases in intracellular calcium levels in fluorescent dye loaded endothelial cells. HUVEC (human umbilical vein endothelial cells) (Clonetics) were seeded in 96-well fibronectin coated black-walled plates overnight @ 37° C./5%CO2. Cells were loaded with calcium indicator Fluo-4 for 45 minutes at 37° C. Cells were washed 4 times (Original Cell Wash, Labsystems) to remove extracellular dye. Test compounds were reconstituted in 100% DMSO and added to the cells to give a final DMSO concentration of 0.1%. For screening, cells were pre-incubated with test agents for 30 minutes, at a single concentration (10 μM) or at concentrations ranging from 0.01 to 10.0 μM followed by VEGF stimulation (5 ng/mL). Changes in fluorescence at 516 nm were measured simultaneously in all 96 wells using a cooled CCD camera. Data were generated by determining max-min fluorescence levels for unstimulated, stimulated, and drug treated samples. IC50 values for test compounds were calculated from % inhibition of VEGF stimulated responses in the absence of inhibitor.
# [3] = target: T1, cytoplasmic domain of the human VEGF receptor (VEGFR-2) (Homo sapiens, UniProt P35968); assay: KDR Assay; type: biochemical; settings: His-VEGFR-2, 3.6 μM ATP, poly-Glu-Tyr (4:1)
# T1 construct: The cytoplasmic domain of the human VEGF receptor (VEGFR-2) was expressed as a Histidine-tagged fusion protein; His tag (Histidine-tagged fusion); made in house; host or cells: insect cells (engineered baculovirus)
# Protocol: The cytoplasmic domain of the human VEGF receptor (VEGFR-2) was expressed as a Histidine-tagged fusion protein following infection of insect cells using an engineered baculovirus. His-VEGFR-2 was purified to homogeneity, as determined by SDS-PAGE, using nickel resin chromatography. Kinase assays were performed in 96 well microtiter plates that were coated overnight with 30 μg of poly-Glu-Tyr (4:1) in 10 mM Phosphate Buffered Saline (PBS), pH 7.2-7.4. The plates were incubated with 1% BSA and then washed four times with PBS prior to starting the reaction. Reactions were carried out in 120 μL reaction volumes containing 3.6 μM ATP in kinase buffer (50 mM Hepes buffer pH 7.4, 20 mM MgCl2, 0.1 mM MnCl2 and 0.2 mM Na3VO4). Test compounds were reconstituted in 100% DMSO and added to the reaction to give a final DMSO concentration of 5%. Reactions were initiated by the addition 0.5 ng of purified protein. Following a ten minute incubation at 25° C., the reactions were washed four times with PBS containing 0.05% Tween-20. 100 μl of a monoclonal anti-phosphotyrosine antibody-peroxidase conjugate was diluted 1:10000 in PBS-Tween-20 and added to the wells for 30 minutes. Following four washes with PBS-Tween-20, 100 μl of 0-Phenylenediamine Dihydrochloride in Phosphate-citrate buffer, containing urea hydrogen peroxide, was added to the wells for 7 minutes as a colorimetric substrate for the peroxidase. The reaction was terminated by the addition of 100 μl of 2.5N H2SO4 to each well and read using a microplate ELISA reader set at 492 nm. IC50 values for compound inhibition were calculated directly from graphs of optical density (arbitrary units) versus compound concentration following subtraction of blank values.
# T1 sequence (P35968 786-1356 limits assumed): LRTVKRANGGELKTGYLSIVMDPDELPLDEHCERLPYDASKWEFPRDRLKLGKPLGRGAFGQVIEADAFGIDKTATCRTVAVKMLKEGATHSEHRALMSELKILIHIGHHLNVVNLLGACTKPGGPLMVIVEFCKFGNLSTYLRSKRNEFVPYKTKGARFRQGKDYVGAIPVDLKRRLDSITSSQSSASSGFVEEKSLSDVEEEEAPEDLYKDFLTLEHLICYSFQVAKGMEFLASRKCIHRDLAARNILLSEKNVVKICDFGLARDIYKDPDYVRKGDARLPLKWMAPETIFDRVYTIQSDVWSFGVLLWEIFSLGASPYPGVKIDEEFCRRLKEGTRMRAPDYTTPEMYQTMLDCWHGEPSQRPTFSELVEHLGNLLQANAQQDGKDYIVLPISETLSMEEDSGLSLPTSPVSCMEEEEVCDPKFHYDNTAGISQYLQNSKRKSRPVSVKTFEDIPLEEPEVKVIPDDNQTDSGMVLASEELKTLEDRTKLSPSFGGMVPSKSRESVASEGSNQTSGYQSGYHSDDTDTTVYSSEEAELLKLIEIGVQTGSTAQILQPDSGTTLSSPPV
smiles,measurement,setting,value
"Cc1cccc2c1C(=CNc1cc[nH]n1)C(=O)N2 [Example 6, 4-Methyl-3-[(1H-pyrazol-3-ylamino)-methylene]-1,3-dihydro-indol-2-one]","in-vivo activity (Miles Assay, Table 3)",[1],significant in-vivo activity
same,Miles Assay % inhibition,[1],83%
same,IC50,[2],1070 nM
same,inhibition at 10 µM,[2]; Homo sapiens,97.6%
same,IC50,[2]; Homo sapiens,≤ 1000 nM
same,IC50,[3],500 nM
"Cc1cc(NC=C2C(=O)Nc3ccc(F)cc32)n[nH]1 [Example 26, 5-Fluoro-3-[(5-methyl-1H-pyrazol-3-ylamino)-methylene]-1,3-dihydro-indol-2-one]","in-vivo activity (Miles Assay, Table 3)",[1],significant in-vivo activity
same,Miles Assay % inhibition,[1],100%
same,IC50,[2],520 nM
same,inhibition at 10 µM,[2]; Homo sapiens,97.1%
same,IC50,[2]; Homo sapiens,≤ 1000 nM
same,IC50,[3],330 nM
"O=C1Nc2ccc(F)cc2C1=CNc1cc(-c2ccco2)[nH]n1 [Example 27, 5-Fluoro-3-[(5-furan-2-yl-1H-pyrazol-3-ylamino)-methylene]-1,3-dihydro-indol-2-one]",IC50,[2],1050 nM
same,inhibition at 10 µM,[2]; Homo sapiens,98.6%
same,IC50,[2]; Homo sapiens,≤ 1000 nM
same,IC50,[3],530 nM
"Cc1oc(C(C)(C)C)cc1-c1cc(NC=C2C(=O)Nc3ccc(F)cc32)[nH]n1 [Example 28, 3-{[5-(5-tert-Butyl-2-methyl-furan-3-yl)-2H-pyrazol-3-ylamino]-methylene}-5-fluoro-1,3-dihydro-indol-2-one]",inhibition at 10 µM,[2]; Homo sapiens,43.9%
same,IC50,[3],15700 nM
"Cc1oc(C(C)(C)C)cc1-c1cc(NC=C2C(=O)Nc3ccccc32)[nH]n1 [Example 29, 3-{[5-(5-tert-Butyl-2-methyl-furan-3-yl)-2H-pyrazol-3-ylamino]-methylene}-1,3-dihydro-indol-2-one]",IC50,[2],580 nM
same,inhibition at 10 µM,[2]; Homo sapiens,99.1%
same,IC50,[2]; Homo sapiens,≤ 1000 nM
same,IC50,[3],260 nM
"Cc1cc(C)cc(-c2cc(NC=C3C(=O)Nc4ccccc43)[nH]n2)c1 [Example 32, 3-{[5-(3,5-Dimethyl-phenyl)2H-pyrazol-3-ylamino]-methylene}-1,3-dihydro-indol-2-one]",inhibition at 10 µM,[2]; Homo sapiens,46.1%
same,IC50,[3],9540 nM
"COc1cccc(-c2cc(NC=C3C(=O)Nc4ccccc43)[nH]n2)c1 [Example 33, 3-{[5-(3-Methoxy-phenyl)-2H-pyrazol-3-ylamino]-methylene}-1,3-dihydro-indol-2-one]",inhibition at 10 µM,[2]; Homo sapiens,92.9%
same,IC50,[2]; Homo sapiens,4400 nM
same,IC50,[3],1430 nM
"CN(C)c1ccc(-c2cc(NC=C3C(=O)Nc4ccccc43)[nH]n2)cc1 [Example 35, 3-{[5-(4-Dimethylamino-phenyl)-2H-pyrazol-3-ylamino]-methylene}-1,3-dihydro-indol-2-one]",inhibition at 10 µM,[2]; Homo sapiens,93%
same,IC50,[2]; Homo sapiens,3060 nM
same,IC50,[3],3490 nM
"COc1ccccc1-c1cc(NC=C2C(=O)Nc3ccccc32)[nH]n1 [Example 37, 3-{[5-(2-Methoxy-phenyl)-2H-pyrazol-3-ylamino]-methylene}-1,3-dihydro-indol-2-one]",inhibition at 10 µM,[2]; Homo sapiens,13.6%
same,IC50,[3],12700 nM
"CCOc1ccc(-c2cc(NC=C3C(=O)Nc4ccccc43)[nH]n2)cc1 [Example 38, 3-{[5-(4-Ethoxy-phenyl)-2H-pyrazol-3-ylamino]-methylene}-1,3-dihydro-indol-2-one]",inhibition at 10 µM,[2]; Homo sapiens,70%
same,IC50,[2]; Homo sapiens,6750 nM
same,IC50,[3],9900 nM
"CC(C)(C)c1cc(NC=C2C(=O)Nc3ccccc32)no1 [Example 41, 3-[(5-tert-Butyl-isoxazol-3-ylamino)-methylene]-1,3-dihydro-indol-2-one]",inhibition at 10 µM,[2]; Homo sapiens,96.5%
same,IC50,[2]; Homo sapiens,10000 nM
same,IC50,[3],780 nM
"Cc1onc(NC=C2C(=O)Nc3ccccc32)c1Br [Example 42, 3-[(4-Bromo-5-methyl-isoxazol-3-ylamino)-methylene]-1,3-dihydro-indol-2-one]",inhibition at 10 µM,[2]; Homo sapiens,0.3%
same,IC50,[3],1910 nM
"O=C1Nc2ccccc2C1=CNc1ccon1 [Example 43, 3-(Isoxazol-3-ylaminomethylene)-1,3-dihydro-indol-2-one]",inhibition at 10 µM,[2]; Homo sapiens,62.4%
same,IC50,[2]; Homo sapiens,7560 nM
same,IC50,[3],2320 nM
"Cc1cc(NC=C2C(=O)Nc3ccccc32)no1 [Example 44, 3-[(5-Methyl-isoxazol-3-ylamino)-methylene]-1,3-dihydro-indol-2-one]",inhibition at 10 µM,[2]; Homo sapiens,97%
same,IC50,[2]; Homo sapiens,2550 nM
same,IC50,[3],650 nM
"Cc1noc(NC=C2C(=O)Nc3ccccc32)c1C [Example 45, 3-[(3,4-Dimethyl-isoxazol-5-ylamino)-methylene]-1,3-dihydro-indol-2-one]",inhibition at 10 µM,[2]; Homo sapiens,84.9%
same,IC50,[2]; Homo sapiens,2550 nM
same,IC50,[3],980 nM
"CCn1nccc1NC=C1C(=O)Nc2ccccc21 [Example 46, 3-[(2-Ethyl-2H-pyrazol-3-ylamino)-methylene]-1,3-dihydro-indol-2-one]",inhibition at 10 µM,[2]; Homo sapiens,42.4%
same,IC50,[3],11600 nM
"Cc1oc(C(C)(C)C)cc1-c1cc(NC=C2C(=O)Nc3ccccc32)n(C)n1 [Example 47, 3-{[5-(5tert-Butyl-2-methyl-furan-3-yl)-2-methyl-2H-pyrazol-3-ylamino]-methylene}-1,3-dihydro-indol-2-one]",inhibition at 10 µM,[2]; Homo sapiens,79.7%
same,IC50,[2]; Homo sapiens,5920 nM
same,IC50,[3],2510 nM
"Cc1cc(NC=C2C(=O)Nc3cc(F)ccc32)no1 [Example 48, 6-Fluoro-3-[(5-methyl-isoxazol-3-ylamino)-methylene]-1,3-dihydro-indol-2-one]",IC50,[2]; Homo sapiens,960 nM
same,IC50,[3],1390 nM
"O=C1Nc2cc(F)ccc2C1=CNc1cc(-c2ccco2)[nH]n1 [Example 50, 6-Fluoro-3-[(5-furan-2-yl-1H-pyrazol-3-ylamino)-methylene]-1,3-dihydro-indol-2-one]",IC50,[2],590 nM
same,IC50,[2]; Homo sapiens,≤ 1000 nM
same,IC50,[3],980 nM
"O=C1Nc2cc(F)ccc2C1=CNc1cc(-c2ccccc2)[nH]n1 [Example 51, 6-Fluoro-3-[(5-phenyl-1H-pyrazol-3-ylamino)-methylene]-1,3-dihydro-indol-2-one]",IC50,[2]; Homo sapiens,2320 nM
same,IC50,[3],1210 nM
"Cc1oc(C(C)(C)C)cc1-c1cc(NC=C2C(=O)Nc3cc(F)ccc32)[nH]n1 [Example 52, 3-{[5-(5-tert-Butyl-2-methyl-furan-3-yl)-2H-pyrazol-3-ylamino]-methylene}-6-fluoro-1,3-dihydro-indol-2-one]",IC50,[2]; Homo sapiens,3400 nM
same,IC50,[3],82300 nM
"O=C1Nc2cc(F)ccc2C1=CNc1cc[nH]n1 [Example 53, 6-Fluoro-3-[(1H-pyrazol-3-ylamino)-methylene]-1,3-dihydro-indol-2-one]",IC50,[2]; Homo sapiens,1380 nM
same,IC50,[3],2220 nM
